In patent US6451814B1, “Heterocyclic β-3 adrenergic receptor agonists” (Wyeth, priority 2000, dated 2002):
Counter-ions that a name gives are not always drawn.

Structure (SMILES) | melting point
O=C(c1cc2cc(Br)ccc2[nH]1)N1CCC(Nc2ccc(CCNC[C@H](O)COc3ccc(O)cc3)cc2)CC1 (as salt: salt) [Example 96, (5-Bromo-1H-indol-2-yl)-[4-(4-{2-[(2S)-2-hydroxy-3-(4-hydroxy-phenoxy)-propylamino]-ethyl}-phenylamino)-piperidin-1-yl]-methanone] | 114 to 116 °C
COc1ccc2[nH]c(C(=O)N3CCC(Nc4ccc(CCNCC(O)COc5ccc(O)cc5)cc4)CC3)cc2c1 (stereo not shown) (as salt: salt) [Example 94, [4-(4-{2-[2-Hydroxy-3-(4-hydroxy-phenoxy)-propylamino]-ethyl}-phenylamino)-piperidin-1-yl]-(5-methoxy-1H-indol-2-yl)-methanone] | 101 to 103 °C
CCN(CC)C(=O)N1CCC(Nc2ccc(CCNC[C@H](O)COc3ccc(O)cc3)cc2)CC1 [Example 14, 4-(4-{2-[(2S)-2-Hydroxy-3-(4-hydroxy-phenoxy)-propylamino]-ethyl}-phenylamino)-piperidine-1-carboxylic Acid Diethylamide] | 61 to 65 °C
CCCCCCCCNC(=O)N1CCC(N(C(C)=O)c2ccc(CCNC[C@H](O)COc3ccc(O)cc3)cc2)CC1 (as salt: salt) [Example 8, 4-[Acetyl-(4-{2-[(2S)-2-hydroxy-3-(4-hydroxy-phenoxy)-propylamino]-ethyl}-phenyl)-amino]-piperidine-1-carboxylic Acid Octylamide] | 71 to 74 °C
CCCCCCCCNC(=O)N1CCC(Nc2ccc(CCNCC(O)c3ccc(O)c(C(N)=O)c3)cc2)CC1 (stereo not shown) (as salt: salt) [Example 7, 4-(4-{2-[2-(3-Carbamoyl-4-hydroxy-phenyl)-2-hydroxy-ethylamino]-ethyl}-phenylamino)-piperidine-1-carboxylic Acid Octylamide] | 101 to 104 °C
O=C(NCCCC1CCCC1)N1CCC(Nc2ccc(CCNC[C@H](O)COc3ccc(O)cc3)cc2)CC1 (as salt: salt) [Example 12, 1-4-(4-{2-[(2S)-2-Hydroxy-3-(4-hydroxy-phenoxy)-propylamino]-ethyl}-phenylamino)-piperidine-1-carboxylic Acid (3-cyclopentyl-propyl)-amide] | 71 to 74 °C
CS(=O)(=O)Nc1cc([C@@H](O)CNCCc2ccc(NC3CCN(C(=O)c4ccc(C(=O)O)cc4)CC3)cc2)ccc1O (as salt: salt) [Example 105, 4-[4-(4-{2-[(2R)-2-Hydroxy-2-(4-hydroxy-3-methanesulfonylamino-phenyl)-ethylamino]-ethyl}-phenylamino)-piperidine-1-carbonyl]-benzoic Acid] | > 200 °C
CS(=O)(=O)Nc1cc([C@@H](O)CNCCc2ccc(NC3CCN(c4nc(-c5ccccc5)cs4)CC3)cc2)ccc1O (as salt: salt) [Example 118, (R)-N-{2-Hydroxy-5-[1-hydroxy-2-(2-{4-[1-(4-phenyl-thiazol-2-yl)-piperidin-4-ylamino]-phenyl}-ethylamino)-ethyl]-phenyl}-methanesulfonamide] | 142 to 145 °C
CCCCCCCCNC(=O)N1CCC(S(=O)(=O)c2ccc(CCNC[C@H](O)COc3ccc4c(c3)OCO4)cc2)CC1 [Example 49, 4-(4-{2-[(2S)-3-(Benzo[1,3]dioxol-5-yloxy)-2-hydroxy-propylamino]-ethyl}-benzenesulfonyl)-piperidine-1-carboxylic Acid Octylamide] | 84 to 86 °C
CCCCCCCCNC(=O)N1CCC(Nc2ccc(CCNC[C@H](O)CON=C3CCCc4c(O)cccc43)cc2)CC1 [Example 64, 4-(4-{2-[(2S)-2-Hydroxy-3-(5-hydroxy-3,4-dihydro-2H-naphthalen-1-ylideneaminooxy)-propylamino]-ethyl}-phenylamino)-piperidine-1-carboxylic Acid Octylamide] | 85 to 87 °C
Cc1ccsc1C(=O)N1CCC(Nc2ccc(CCNC[C@H](O)COc3cccc4[nH]c(=O)[nH]c34)cc2)CC1 (as salt: salt) [Example 101, 4-[(2S)-2-Hydroxy-3-(2-{4-[1-(3-methyl-thiophene-2-carbonyl)-piperidin-4-ylamino]-phenyl}-ethylamino)-propoxy]-1,3-dihydro-benzoimidazol-2-one] | 128 to 130 °C
O=C(c1n[nH]c2ccccc12)N1CCC(Nc2ccc(CCNC[C@H](O)COc3ccc(O)cc3)cc2)CC1 (as salt: salt) [Example 102, [4-(4-{2-[(2S)-2-Hydroxy-3-(4-hydroxy-phenoxy)-propylamino]-ethyl}-phenylamino)-piperidin-1-yl]-(1H-indazol-3-yl)-methanone] | 111 to 113 °C
C=CCc1ccccc1OC[C@@H](O)CNCCc1ccc(NC2CCN(C(=O)NCCCCCCCC)CC2)cc1 (as salt: salt) [Example 4, 4-(4-{2-[(2S)-3-(2-Allyl-phenoxy)-2-hydroxy-propylamino]-ethyl}-phenylamino)-piperidine-1-carboxylic Acid Octylamide] | 73 to 80 °C

Next, values leading:

melting point | Structure (SMILES)
81 to 85 °C | CCNC(=O)N1CCC(Nc2ccc(CCNC[C@H](O)COc3ccc(O)cc3)cc2)CC1 (as salt: salt) [Example 10, 4-(4-{2-[(2S)-2-Hydroxy-3-(4-hydroxy-phenoxy)-propylamino]-ethyl}-phenylamino)-piperidine-1-carboxylic Acid Ethylamide]
108 to 111 °C | CCCCCCNC(=O)Nc1ccc(C(=O)N2CCC(Nc3ccc(CCNC[C@H](O)COc4ccc(O)cc4)cc3)CC2)cc1 [Example 93, 1-Hexyl-3-{4-[4-(4-{2-[(2S)-2-hydroxy-3-(4-hydroxy-phenoxy)-propylamino]-ethyl}-phenylamino)-piperidine-1-carbonyl]-phenyl}-urea]
165 to 168 °C | CCCCCCNC(=O)Nc1ccc(S(=O)(=O)N2CCC(Nc3ccc(CCNC[C@H](O)COc4ccc(O)cc4)cc3)CC2)cc1 (as salt: hydrochloride) [Example 108, 1-Hexyl-3-{4-[4-(4-{2-[(2S)-2-hydroxy-3-(4-hydroxy-phenoxy)-propylamino]-ethyl}-phenylamino)-piperidine-1-sulfonyl]-phenyl}-urea]
88 to 91 °C | CCCCCCCCNC(=O)N1CCC(C(=O)N2CCC(Nc3ccc(CCNC[C@H](O)COc4ccc(O)cc4)cc3)CC2)CC1 (as salt: salt) [Example 92, 4-[4-(4-{2-[(2S)-2-Hydroxy-3-(4-hydroxy-phenoxy)-propylamino]-ethyl}-phenylamino)-piperidine-1-carbonyl]-piperidine-1-carboxylic Acidoctylamide]
93 to 99 °C | O=C(NCc1ccc(Cl)cc1Cl)N1CCC(Nc2ccc(CCNC[C@H](O)COc3ccc(O)cc3)cc2)CC1 (as salt: ammonium) [Example 20, 4-(4-{2-[(2S)-2-Hydroxy-3-(4-hydroxy-phenoxy)-propylamino]-ethyl}-phenylamino)-piperidine-1-carboxylic Acid 2,4-dichloro-benzylamide]
89 to 95 °C | CCCCCCCCNC(=O)N1CCC(Nc2ccc(CCNC[C@H](O)COc3ccc(NS(C)(=O)=O)cc3)cc2)CC1 [Example 22, 4-(4-{2-[(2S)-2-Hydroxy-3-(4-methanesulfonylamino-phenoxy)-propylamino]-ethyl}-phenylamino)-piperidine-1-carboxylic Acid Octylamide]
